Measurements from patent US12064438B2, “Pharmaceutical preparation excellent in light stability and dissolution property” (priority 2017, dated 2024).

Tests used:
influenza virus [1] = test: Clinical test: randomized, placebo-controlled, double-blind study, time to alleviation of influenza symptoms (10, 20, 40 mg); assay type: in vivo, human
influenza virus [2] = assay type: in vivo, human; settings: 20 to younger than 65 years old, Compound II-6 single 40 or 80 mg, Oseltamivir 75 mg twice a day for 5 days
[3] = for Adverse events the causal relationship of which cannot be denied, number of episodes: Compound II-6 610 patients, Oseltamivir 513 patients; for Adverse events the causal relationship of which cannot be denied, proportion of patients: Compound II-6 single 40 or 80 mg, Oseltamivir 75 mg twice a day for 5 days
From the text: The number of side-effect episodes and the number of patients with side effect were counted for each administration group.

[4] = single oral 20 mg, Cox proportional hazard model relative to placebo
[5] = single oral 40 mg, baseline symptom moderate or severe

| Compound | Time until muscular or joint pain symptom is alleviated, Hazard ratio (influenza virus [1]; single oral 10 mg, Cox proportional hazard model relative to placebo) | Time to alleviation of influenza symptoms, Hazard ratio (influenza virus [1]; [4]) | Time until nasal congestion symptom is alleviated, Hazard ratio (influenza virus [1]; [4]) | median time until muscular or joint pain was improved, shorter in the 40 mg administered group than the placebo group (influenza virus [1]; single oral 40 mg) | median time until nasal congestion was improved, shorter in the 40 mg administered group than the placebo group (influenza virus [1]; single oral 40 mg) | Time until feverishness or chills symptom is alleviated, Hazard ratio (influenza virus [1]; single oral 40 mg, Cox proportional hazard model relative to placebo) | Time until muscular or joint pain symptom is alleviated, Difference from placebo (influenza virus [1]; [5]) | Time until nasal congestion symptom is alleviated, Difference from placebo (influenza virus [1]; [5]) | time to termination of viral shedding based on virus titer (influenza virus [2]) | Amount of change in virus titer from baseline, Mean (influenza virus [2]; Day 5) | Adverse events the causal relationship of which cannot be denied, number of episodes [3] | Adverse events the causal relationship of which cannot be denied, proportion of patients [3] | Severe adverse events the causal relationship of which cannot be denied ([3]; human, in vivo) |
| --- | --- | --- | --- | --- | --- | --- | --- | --- | --- | --- | --- | --- | --- |
| COC(=O)OCOc1c2n(ccc1=O)N([C@@H]1c3ccccc3SCc3c1ccc(F)c3F)[C@@H]1COCCN1C2=O [Compound II-6] | 0.77 | 0.81 | 0.59 | 16.4 h | 21.0 h | 0.71 | -16.4 h | -21 h | 24.0 h | −4.95 log10 [TCID50/mL] | 37 episodes | 4.4% | not reported |
| CCOC(=O)C1=C[C@@H](OC(CC)CC)[C@H](NC(C)=O)[C@@H](N)C1 [Oseltamivir, reference compound] | – | – | – | – | – | – | – | – | 72.0 h | – | 53 episodes | 8.4% | – |
